Experimental data taken from patent publication US20250122456A1, “MICRO-PHY[…] FOR IMMUNE RESPONSE MODELING” (priority 2023, published 2025).

Test system: gut-liver interaction with immune cells
Assay: donor-matched gut-liver interaction with immune cells challenged with Poly:IC
Format: cell-based, human
Details: intestinal challenge, mimicking viral infection, FIG. 12
Text: A single-cell RNA sequencing characterization of 3 donor-matched blood, gut and liver tissue is shown at 1202. On top, T cell clustering per tissue is shown, including PBMCS (PB), liver (L), and gut lamina propria (LP) and intraepithelial space (IEL). On the bottom, a distribution of major T cell subtypes per tissue is shown including CD4 T cells, CD8 T cells, and gamma-delta T cells. […] The interacting system was challenged with Poly:IC mimicking viral infection. […] On the bottom, liver albumin production data compare the three conditions.

## Poly: IC
  inflammatory cytokines detected in common media: significant induction
